Results reported in patent US8481496B2, “Gold (III) complexes with oligopeptides functionalized with sulfur donors and use thereof as antitumor agents” (Universita' Degli Studi di Padova, priority 2009, dated 2013).

Key:
MDA-MB-231 tumor = conditions: MDA-MB-231 tumor-bearing nude mice; cited from earlier work
[1] = system: cisplatin-sensitive (2008) and -resistant (C13*) human ovarian carcinoma cells; conditions: cited from earlier work
[2] = system: human prostate carcinoma PC3 cells; assay: In vitro cytotoxicity, BrdU cell proliferation ELISA; assay type: cell-based; conditions: 72 h exposure, 0.05-10 μM
Procedure: Human prostate carcinoma PC3 cells (established from bone marrow metastasis and unresponsive to androgen treatment) were cultured in IMDM (Iscove's Modified Dulbecco's medium) supplemented with 10% heat-inactivated fetal bovine serum (FBS), penicillin (2 mg mL^−1), streptomycin (2 mg mL^−1), L-glutamine (0.1% w/v) at 37° C. in 5% CO2 and moisture-enriched atmosphere.
Before use, [Au^IIIX2(pdtc)] complexes (AUD6, AUD7, AUD8, AUD9) and cisplatin were dissolved in methyl sulfoxide (DMSO) just before the experiments. Calculated amounts of drug solutions were then added to the proper medium to a final concentration of 0.5% (v/v) DMSO which had no discernible effect on cell death.
For the cytotoxicity assay, cells (2.5×10^3 cells mL^−1) were seeded in 96-well flat-bottomed microplates in IMDM supplemented with 10% heat-inactivated FBS and incubated at 37° C. in a 5% CO2 atmosphere. The medium was then removed and replaced with a fresh one containing the compounds to be studied (previously dissolved in DMSO) at increasing concentrations (0.05-10 μM), thus exposing cells to the investigated compounds for 72 h. Triplicate cultures were established for each treatment. Cell viability was determined by a cell proliferation ELISA 5-bromo-2′-deoxyuridine colorimetric kit, according to the manufacturer's protocol. […] For comparison purposes, the cytotoxicity of cisplatin was evaluated under the same experimental conditions.

[3] = system: estrogen receptor α-negative human breast cancer MDA-MB-231 cells; assay: Growth inhibition, MTT assay; assay type: cell-based; conditions: 1-50 μM, 22 h, FIG. 2
Procedure: The growth-inhibitory effect of AUD6 and AUD8 on estrogen receptor α-negative human breast cancer MDA-MB-231 cells has been also evaluated. Cells were grown in RPMI 1640 medium supplemented with 10% heat-inactivated fetal bovine serum, penicillin (100 units mL^−1), streptomycin (100 μg mL^−1), L-glutamine (0.1% w/v) at 37° C. in 5% CO2 and moisture-enriched atmosphere. For the cytotoxicity assay, cells were seeded in 96-well microplates in RPMI 1640 medium and grown to 70% to 80% confluency followed by addition of the compounds to be studied (previously dissolved in DMSO) at increasing concentrations (1-50 μM) and incubated at 37° C. in a 5% CO2 atmosphere, thus exposing cells to the investigated compounds for 22 h. Triplicate cultures were established for each treatment. Cell respiration, as an indicator of cell viability, was determined by the mitochondrial-dependent reduction of MTT (3-(4,5-dimethylthiazol-2-yl)-2,5-diphenyltetrazolium bromide) to formazan as previously described [V. Milacic, D. Chen, L. Ronconi, K. R. Landis-Piwowar, D. Fregona, Q. P. Dou, Cancer Res. 2006, 66, 10478-10486]. Cell viability was calculated by dividing the average absorbance of the cells treated with the test compounds by that of the control, the standard deviation being estimated from the average of three trials.

[4] = system: purified rabbit 20S proteasome; assay: Inhibition of proteasomal chymotrypsin-like activity, purified proteasome; assay type: biochemical; conditions: for potency relative to previously investigated Au(III)-dithiocarbamato analogues: purified rabbit 20S proteasome; for inhibition of proteasomal chymotrypsin-like activity: purified rabbit 20S proteasome (35 ng), 0.1-25 μM, 2 h, FIG. 3A
Procedure: (§1) To investigate whether these compounds could also have the proteasome as a biological target, purified rabbit 20S proteasome (35 ng) or MDA-MB-231 whole cell extract (10 μg) were incubated with 20 μM of the substrate (for proteasomal chymotryptic (CT) activity) in 100 μL assay buffer (20 mmol L^−1 Tris-HCl (pH 7.5) in the presence of the compounds to be studied (previously dissolved in DMSO) at increasing concentrations (0.1-25 μM) or equivalent volume of neat DMSO as control. After 2 h incubation at 37° C., inhibition of each proteasomal chymotryptic activity was measured as previously described [V. Milacic et al. 2006, ref. cit.].

[5] = molecular target: T1, MDA-MB-231 whole cell extract (Homo sapiens, UniProt P28074); assay: Inhibition of proteasomal chymotrypsin-like activity, whole cell extract; assay type: biochemical; conditions: for potency relative to previously investigated Au(III)-dithiocarbamato analogues: MDA-MB-231 whole cell extract; for inhibition of proteasomal chymotrypsin-like activity: MDA-MB-231 whole cell extract (10 μg), 0.1-25 μM, 2 h, FIG. 3B
T1 construct: MDA-MB-231 whole cell extract (10 μg); endogenous in cells; host or cells: MDA-MB-231 whole cell extract
T1 sequence (P28074 60-263): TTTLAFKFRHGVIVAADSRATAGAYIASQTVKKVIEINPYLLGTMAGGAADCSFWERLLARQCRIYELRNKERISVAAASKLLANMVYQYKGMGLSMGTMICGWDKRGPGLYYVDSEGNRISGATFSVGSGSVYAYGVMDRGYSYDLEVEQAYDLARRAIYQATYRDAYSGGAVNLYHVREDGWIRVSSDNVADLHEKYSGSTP
Procedure: as §1

[6] = system: proteasome target proteins, such as Bax and p27; assay: Accumulation of proteasome target proteins; assay type: cell-based; conditions: preliminary
[7] = system: human breast cancer (MDA-MB-231) xenografts; assay: Human breast tumor xenograft experiments; assay type: in vivo; conditions: 1.0 mg kg−1 s.c. daily, after 13 days, female athymic nude mice
Procedure: Estrogen receptor α-negative human breast cancer MDA-MB-231 cells were grown in RPMI 1640 medium supplemented with 10% fetal bovine serum, penicillin (100 units mL^−1), and streptomycin (100 μg mL^−1) at 37° C. in 5% CO2 and moisture-enriched atmosphere.
Five week-old female athymic nude mice were purchased from Taconic Research Animal Services (Hudson) and housed according to protocols approved by the Institutional Laboratory Animal Care and Use Committee of Wayne State University. MDA-MB-231 cells (5.0×10^6 cells mL^−1 suspended in 0.1 mL of serum-free RPMI 1640 medium) were inoculated subcutaneously (s.c.) in right flank of each mouse (four mice per group). When tumors reached the size of ca. 120 mm^3, mice were randomly grouped and treated daily with s.c. injection of either 1.0 mg kg^−1 of AUD6 or AUD8, or vehicle [10% DMSO, 20% Cremophore/ethanol (3:1) and 70% PBS]. Tumor size was measured every other day using calipers and their volumes were calculated according to the formula width^2×length/2. Mice have being treated for 13 days. Initial tumor growth inhibition was analyzed.

Compound: CN(C)C1=[S+][Au-]([Br])([Br])[S]1 [[Au^IIIBr2(DMDT)]]
- inhibition of tumor growth (MDA-MB-231 tumor): significant inhibition of tumor growth

Compound: CCOC(=O)CN(C)C(=S)[S][Pt][Cl].c1ccncc1 [[Pt^IICl(ESDT)(py)]]
- inhibition of tumor cell growth compared with cisplatin ([1]; 2008 and C13* cells): greater inhibition of tumor cell growth than cisplatin
- cross-resistance in C13* cells ([1]; cisplatin-resistant C13* cells): complete lack of cross-resistance

Compound: N.N.[Cl][Pt][Cl] [cisplatin, cis-dichlorodiamminoplatinum(II), reference compound]
- IC50 [2]: 2600 ± 200 nM

Compound: [Au^IIIBr2((t-Bu)O-Aib-Sar-dtc)] [AUD8]
- IC50 [2]: 550 ± 50 nM
- growth-inhibitory effect on MDA-MB-231 cells [3]: slightly higher activity
- potency relative to previously investigated Au(III)-dithiocarbamato analogues [4]: two-fold more potent
- inhibition of proteasomal chymotrypsin-like activity [4]: concentration-dependent
- potency relative to previously investigated Au(III)-dithiocarbamato analogues [5]: two-fold more potent
- inhibition of proteasomal chymotrypsin-like activity [5]: concentration-dependent
- accumulation of proteasome target proteins (Bax, p27) [6]: induce accumulation of proteasome target proteins
- tumor growth inhibition [7]: > 90%

Compound: [Au^IIIBr2((t-Bu)O-Gly-Sar-dtc)] [AUD6]
- IC50 [2]: 850 ± 70 nM
- potency relative to previously investigated Au(III)-dithiocarbamato analogues [4]: two-fold more potent
- inhibition of proteasomal chymotrypsin-like activity [4]: concentration-dependent
- potency relative to previously investigated Au(III)-dithiocarbamato analogues [5]: two-fold more potent
- inhibition of proteasomal chymotrypsin-like activity [5]: concentration-dependent
- accumulation of proteasome target proteins (Bax, p27) [6]: induce accumulation of proteasome target proteins
- tumor growth inhibition [7]: ca. 33%

Compound: [Au^IIICl2((t-Bu)O-Aib-Sar-dtc)] [AUD9]
- IC50 [2]: 750 ± 60 nM

Compound: [Au^IIICl2((t-Bu)O-Gly-Sar-dtc)] [AUD7]
- IC50 [2]: 1000 ± 100 nM
